According to EPA's ToxValDB 9.5 (doi:10.2903/j.efsa.2010.1719):
Converted amounts (≈) assume the structure as drawn. “And” between values parts separate entries of the source, which are not always exact repeats. Identical values can stand only once.

Columns and labels:
Daphnia magna = conditions: chronic/long-term; duration: 21 days; reproduction
Canidae = conditions: chronic; duration: 1 years; oral; Dog Other; histopathology: nonneoplastic
Colinus virginianus = conditions: for LD50: acute, oral, mortality
Mus musculus = conditions: acute; oral; M; mortality
Bibionidae = conditions: chronic/long-term; duration: 28 days
Folsomia candida = conditions: chronic/long-term; duration: 28 days
Danio rerio = conditions: mortality
Apis mellifera = conditions: acute; duration: 48 hours; dermal; mortality

## CCCN(CC)CC1COC2(CCC(C(C)(C)C)CC2)O1 (stereo not drawn) [Spiroxamine]
Daphnia magna
  NOEC: 0.034 mg/L
Canidae
  NOAEL: 2.5 mg/kg-day
Tagia sp.; acute, duration: 14 days, mortality
  LC50: > 1000 mg/kg
Tagia sp.; chronic/long-term, duration: 56 days
  NOEC: > 3750 mg/kg
Colinus virginianus; diet
  LD50: > 358 mg/kg-day
Colinus virginianus
  LD50: 565 mg/kg-day
Colinus virginianus; reproduction developmental
  NOEL: 2.02 mg/kg-day
Rattus norvegicus; acute, neurology
  NOAEL: 10 mg/kg-day
Rattus norvegicus; acute, oral, F, mortality
  LD50: < 560 mg/kg-day
Rattus norvegicus; chronic
  NOEL: 9.19 mg/kg-day and 22.2 mg/kg-day
Mus musculus
  LD50: 460 mg/kg-day
Bibionidae
  NOEC: 5.6 mg/L
Folsomia candida
  NOEC: 32 mg/kg
Danio rerio; acute, duration: 96 hours
  LC50: 2.41 µg/mL (≈ 8.1 µM)
Danio rerio; chronic, duration: 230 days
  NOEC: 0.002 mg/L
Anas platyrhynchos; reproductive
  NOEL: 10.6 mg/kg-day
Anas platyrhynchos; short-term, oral, feed, mortality
  LD50: 874 mg/kg-day
Apis mellifera
  LD50: > 4.2 µg/piece
